What all share (test): Kinase activity test (ReactionBiology), % enzyme activity relative to DMSO
Assay type in all cases: biochemical

Test [1] has as its target T1, CK1d (Homo sapiens, UniProt P48730).
T1 construct: purchased ReactionBiology
As to conditions: CK1d; for % Enzyme Activity (relative to DMSO controls), Data 1: replicate Data 1; for % Enzyme Activity (relative to DMSO controls), Data 2: replicate Data 2.

For test [2], the target named is T2, EPHB4 (Homo sapiens, UniProt P54760).
T2 construct: purchased ReactionBiology
T2 sequence (P54760 16-987): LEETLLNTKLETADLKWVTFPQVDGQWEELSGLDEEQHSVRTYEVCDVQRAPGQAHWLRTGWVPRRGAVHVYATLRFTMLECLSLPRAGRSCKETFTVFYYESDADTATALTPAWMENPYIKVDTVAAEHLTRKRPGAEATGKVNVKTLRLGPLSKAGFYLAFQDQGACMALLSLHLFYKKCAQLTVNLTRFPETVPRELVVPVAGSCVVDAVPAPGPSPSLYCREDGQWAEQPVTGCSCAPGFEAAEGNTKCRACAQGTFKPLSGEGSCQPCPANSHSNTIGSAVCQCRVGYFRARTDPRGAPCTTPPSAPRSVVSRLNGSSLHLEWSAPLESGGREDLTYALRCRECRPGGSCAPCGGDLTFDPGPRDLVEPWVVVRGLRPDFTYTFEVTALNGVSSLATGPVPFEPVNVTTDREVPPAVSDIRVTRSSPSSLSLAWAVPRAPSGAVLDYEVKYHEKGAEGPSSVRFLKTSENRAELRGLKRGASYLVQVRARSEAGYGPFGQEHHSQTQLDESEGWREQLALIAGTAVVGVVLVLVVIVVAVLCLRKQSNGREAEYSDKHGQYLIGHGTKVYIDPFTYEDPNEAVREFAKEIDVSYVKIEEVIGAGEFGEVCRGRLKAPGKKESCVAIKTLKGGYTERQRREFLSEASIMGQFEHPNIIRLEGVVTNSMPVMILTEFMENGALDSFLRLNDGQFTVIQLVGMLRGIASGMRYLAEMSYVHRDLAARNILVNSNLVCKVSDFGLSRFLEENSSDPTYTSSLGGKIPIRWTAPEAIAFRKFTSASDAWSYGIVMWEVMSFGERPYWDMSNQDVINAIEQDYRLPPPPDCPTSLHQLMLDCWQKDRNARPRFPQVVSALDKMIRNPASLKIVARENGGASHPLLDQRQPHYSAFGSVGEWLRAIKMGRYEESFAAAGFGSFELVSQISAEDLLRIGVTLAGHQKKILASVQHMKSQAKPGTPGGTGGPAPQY
The conditions noted are these: EPHB4; for % Enzyme Activity (relative to DMSO controls), Data 1: replicate Data 1; for % Enzyme Activity (relative to DMSO controls), Data 2: replicate Data 2.

The target in test [3] is VEGFR2 (Homo sapiens, UniProt P35968). Further details: purchased ReactionBiology. As to conditions: VEGFR2; for % Enzyme Activity (relative to DMSO controls), Data 1: replicate Data 1; for % Enzyme Activity (relative to DMSO controls), Data 2: replicate Data 2.
Chain of VEGFR2 (P35968 20-1356): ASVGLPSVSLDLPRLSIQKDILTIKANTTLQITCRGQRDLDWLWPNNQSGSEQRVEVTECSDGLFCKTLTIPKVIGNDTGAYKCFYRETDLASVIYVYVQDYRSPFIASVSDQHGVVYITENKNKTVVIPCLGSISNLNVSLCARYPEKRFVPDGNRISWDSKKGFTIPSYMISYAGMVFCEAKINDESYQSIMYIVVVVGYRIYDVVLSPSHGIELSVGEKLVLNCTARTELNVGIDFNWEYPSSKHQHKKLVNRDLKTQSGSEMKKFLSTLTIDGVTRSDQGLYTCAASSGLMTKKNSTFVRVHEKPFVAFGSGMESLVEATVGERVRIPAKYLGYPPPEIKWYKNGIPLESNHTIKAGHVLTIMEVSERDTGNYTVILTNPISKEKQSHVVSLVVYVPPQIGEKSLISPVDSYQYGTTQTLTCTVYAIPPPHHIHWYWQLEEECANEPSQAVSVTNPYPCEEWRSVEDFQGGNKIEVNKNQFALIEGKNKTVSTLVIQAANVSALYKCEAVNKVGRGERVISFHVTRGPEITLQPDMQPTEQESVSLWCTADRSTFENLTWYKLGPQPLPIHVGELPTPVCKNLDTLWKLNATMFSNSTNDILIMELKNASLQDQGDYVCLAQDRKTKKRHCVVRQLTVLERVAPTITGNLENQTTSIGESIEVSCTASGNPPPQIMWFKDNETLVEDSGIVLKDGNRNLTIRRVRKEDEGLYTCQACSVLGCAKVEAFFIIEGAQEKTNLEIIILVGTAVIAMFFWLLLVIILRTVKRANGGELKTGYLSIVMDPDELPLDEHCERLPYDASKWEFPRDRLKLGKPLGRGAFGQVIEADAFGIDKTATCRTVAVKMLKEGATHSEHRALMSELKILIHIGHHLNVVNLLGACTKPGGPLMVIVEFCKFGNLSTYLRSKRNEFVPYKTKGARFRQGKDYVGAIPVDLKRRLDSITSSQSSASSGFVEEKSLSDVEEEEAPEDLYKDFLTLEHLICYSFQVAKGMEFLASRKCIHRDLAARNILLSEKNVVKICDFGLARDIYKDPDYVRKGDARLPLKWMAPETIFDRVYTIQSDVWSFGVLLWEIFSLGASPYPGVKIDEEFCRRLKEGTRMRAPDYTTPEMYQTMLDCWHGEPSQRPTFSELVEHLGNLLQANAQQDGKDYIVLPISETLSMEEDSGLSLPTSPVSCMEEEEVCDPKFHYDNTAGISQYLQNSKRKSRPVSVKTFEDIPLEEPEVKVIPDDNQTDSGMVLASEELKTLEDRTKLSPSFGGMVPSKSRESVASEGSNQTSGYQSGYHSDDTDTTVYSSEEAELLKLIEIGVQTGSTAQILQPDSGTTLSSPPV

T1 sequence (P48730 whole entry): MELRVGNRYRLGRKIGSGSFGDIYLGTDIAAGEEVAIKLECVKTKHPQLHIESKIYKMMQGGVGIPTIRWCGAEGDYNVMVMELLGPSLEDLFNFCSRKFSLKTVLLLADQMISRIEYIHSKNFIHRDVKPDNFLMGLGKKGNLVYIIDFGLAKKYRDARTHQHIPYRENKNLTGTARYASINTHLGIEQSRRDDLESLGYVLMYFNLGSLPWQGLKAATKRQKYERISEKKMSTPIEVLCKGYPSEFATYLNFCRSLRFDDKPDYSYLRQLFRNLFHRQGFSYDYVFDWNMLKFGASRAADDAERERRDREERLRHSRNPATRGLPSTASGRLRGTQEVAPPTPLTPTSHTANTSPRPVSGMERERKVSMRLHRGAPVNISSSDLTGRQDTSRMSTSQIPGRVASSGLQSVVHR

`C[C@H]1O[C@@H](O[C@H]2[C@@H](O)C[C@H](O[C@H]3[C@@H](O)C[C@H](O[C@H]4CC[C@@]5(C)[C@H](CC[C@@H]6[C@@H]5C[C@@H](O)[C@]5(C)[C@@H](C7=CC(=O)OC7)CC[C@]65O)C4)O[C@@H]3C)O[C@@H]2C)C[C@H](O)[C@@H]1O` [Digoxin]: the “% Enzyme Activity (relative to DMSO controls), Average” value stood at 103.51% in test [1] (1 uM), 100.70% in test [1] (10 uM), 101.58% in test [2] (1 uM) and 92.84% in test [2] (10 uM). Also, the “% Enzyme Activity (relative to DMSO controls), Data 1” value in test [1] (1 uM) is listed as 105.62%; in test [1] (10 uM), 102.31%; in test [2] (1 uM), 99.88%; in test [2] (10 uM) it was 91.71%. The “% Enzyme Activity (relative to DMSO controls), Data 2” value in test [1] (1 uM) amounted to 101.39%; in test [1] (10 uM) it was 99.09%; in test [2] (1 uM), 103.27%; in test [2] (10 uM) it was 93.96%.
In the case of `COc1ccc2c3c1O[C@H]1C[C@@H](O)C=C[C@@]31CCN(C)C2` [Galantamine], the “% Enzyme Activity (relative to DMSO controls), Average” value was found to be 103.82% in test [3] (1 uM), 93.22% in test [3] (10 uM), 104.29% in test [2] (1 uM) and 94.53% in test [2] (10 uM). Also, the “% Enzyme Activity (relative to DMSO controls), Data 1” value was determined as 106.14% in test [3] (1 uM), 95.78% in test [3] (10 uM), 104.73% in test [2] (1 uM) and 95.37% in test [2] (10 uM). Moreover, the “% Enzyme Activity (relative to DMSO controls), Data 2” value in test [3] (1 uM) is reported as 101.5%; in test [3] (10 uM) it was 90.65%; in test [2] (1 uM), 103.85%; in test [2] (10 uM), 93.68%.
Regarding `CCCCC1C(=O)N(c2ccccc2)N(c2ccccc2)C1=O` [Phenylbutazone], the “% Enzyme Activity (relative to DMSO controls), Average” value in test [3] (1 uM) is recorded as 106.05%; in test [3] (10 uM), 96.15%; in test [2] (1 uM), 101.67%; in test [2] (10 uM) it was 94.49%. Moreover, the “% Enzyme Activity (relative to DMSO controls), Data 1” value in test [3] (1 uM) was found to be 102.9%; in test [3] (10 uM), 86.33%; in test [2] (1 uM), 102.42%; in test [2] (10 uM), 94.37%. For the same compound, the “% Enzyme Activity (relative to DMSO controls), Data 2” value was 109.19% in test [3] (1 uM), 105.96% in test [3] (10 uM), 100.92% in test [2] (1 uM) and 94.61% in test [2] (10 uM).
Consider `C/C(O)=C(\C#N)C(=O)Nc1ccc(C(F)(F)F)cc1` [Teriflunomide], for which, in test [2] (1 uM), the “% Enzyme Activity (relative to DMSO controls), Average” value is recorded as 101.51%; the “% Enzyme Activity (relative to DMSO controls), Data 1” value is reported as 102.27%; the “% Enzyme Activity (relative to DMSO controls), Data 2” value worked out at 100.74%. For the same compound, in test [2] (10 uM), the “% Enzyme Activity (relative to DMSO controls), Average” value is reported as 94.56%; the “% Enzyme Activity (relative to DMSO controls), Data 1” value is 96.08%; the “% Enzyme Activity (relative to DMSO controls), Data 2” value is recorded as 93.04%.
As for Penicillin, the “% Enzyme Activity (relative to DMSO controls), Average” value in test [1] (1 uM) worked out at 98.45%; in test [1] (10 uM) it was 115.43%; in test [2] (1 uM), 101.77%; in test [2] (10 uM), 95.95%. Besides, the “% Enzyme Activity (relative to DMSO controls), Data 1” value in test [1] (1 uM) came out at 97.41%; in test [1] (10 uM) it was 111.85%; in test [2] (1 uM), 104.24%; in test [2] (10 uM), 97.18%. For the same compound, the “% Enzyme Activity (relative to DMSO controls), Data 2” value is on record as 99.49% in test [1] (1 uM), 119.01% in test [1] (10 uM), 99.3% in test [2] (1 uM) and 94.72% in test [2] (10 uM).

The record behind these values is PMC7252619 (PLoS ONE, 2020).
